Measured values published in ChEMBL document CHEMBL3507680, “University of Dundee, Gates Library screen for HepG2 cell viability”.

Assay: Human HepG2 cell viability assay in 384 well format
Type: toxicity, cell-based
Parameters: dose 125 nL, time 70.5 hour; cytotoxicity at 70.5 h: concentration not given beside the values
Details: HepG2 cells, read-out: Inhibition

Row | SMILES | cytotoxicity at 70.5 h [%]
1 | CC(=O)c1cc(CC(=O)N2CCN(CCOc3ccccc3)CC2)cs1 | -1.31
2 | CCCN1CCCC2(CCN(S(=O)(=O)N3CCC(OC)CC3)C2)C1=O (stereo not given) | -1.84
3 | CN(Cc1ccco1)c1ccc(C(=O)NCCCc2ccccn2)cn1 | 0.076
4 | Fc1ccccc1CN1CCCN(c2ncnc3[nH]ccc23)CC1 | -24
5 | CCCn1ccnc1CN1C[C@@H](CN2CCCN(C)CC2)[C@@H](CO)C1 | -9.5
6 | CC(C)N1CCC2(CC1)CC(=O)N(Cc1cc(F)cc(F)c1)C2 | -2.98
7 | CC(C)c1cc(NCC(O)c2ccccn2)n2nccc2n1 (stereo not given) | -8.96
8 | Cc1sc2ncnc(N3CCC(N(C)Cc4cnn(C)c4)CC3)c2c1C | 0.374
9 | Cc1nsc(NC(=O)NC2(CN3CCOCC3)CCCC2)n1 | -8.03
10 | CCc1ccc(CN(CCN(C)C)Cc2ccc(C)s2)nc1 | -5.3
11 | O=C1CC(NCc2ncc[nH]2)CN1CCc1cccc(Cl)c1 (stereo not given) | -8.16
12 | CCCn1ncc(C(=O)NC2CCN(C3CCOCC3)CC2)c1C | -2.11
13 | O=C(c1cc2c(s1)CCCCC2)N1CCC(c2ncc[nH]2)CC1 | 1.98
14 | Cc1nc[nH]c1CN(C)Cc1cnn(-c2ccc(F)cc2)c1 | 28.9
15 | O=C(O)[C@@H]1CN(C(=O)CCN2CCCCC2)C[C@H]1c1ccccc1 | -5.31
16 | Cc1ncc(CC(=O)N2CCCC(COc3ccc(F)cc3)C2)c(=O)[nH]1 (stereo not given) | 2.89
17 | CC(C)[C@H](NC(=O)c1cccc(CCC(C)(C)O)c1)C(N)=O | -2.04
18 | CCS(=O)(=O)N1CCC(c2nnc(CN3CCCCCC3)n2C)CC1 | -3.73
19 | c1cc(-c2ccc(CN3CCCC4(CCNC4)C3)s2)[nH]n1 (stereo not given) | 1.71
20 | CCc1nn(C)c(Cl)c1CN1CCC2(C1)CN(C)C(=O)O2 (stereo not given) | -17.2

Row | SMILES | cytotoxicity at 70.5 h [%]
21 | Cc1ccc(N2CCN(C(=O)C(O)c3cccc(Cl)c3)CC2=O)cc1 (stereo not given) | -5.15
22 | O=C1NCC(CN2CCc3onc(-c4ccc(C(F)(F)F)cc4)c3C2)O1 (stereo not given) | -17.3
23 | Cc1ccc(CCNc2nccc(-c3cc(C(=O)O)ccn3)n2)o1 | -6.22
24 | CC(C)(C(=O)NCC1CCN(Cc2cccnc2)C1)c1ccccc1 (stereo not given) | -4.33
25 | O=C(NC1CCNCC1)C1(N2CCCCC2)Cc2ccccc2C1 | 13.5
26 | CCNC(=O)C1CCN(c2nccc(C3CCCC3)n2)C1 (stereo not given) | -17.7
27 | Cc1ccc(NC2CCCN(CCCc3ccccc3)C2)nn1 (stereo not given) | 30.2
28 | CCSCCn1c(=O)n(Cc2ccc(F)cc2)c2ncc(C(=O)O)cc21 | -4.52
29 | CCc1ccc(CN2CCN(c3ccc(C(N)=O)cn3)CC2)nc1 | 2.82
30 | C[C@@H]1CN(C(=O)C2(Cn3cccn3)CC2)CC[C@@]1(O)C1CC1 | 26.3
31 | CN(C)C(=O)N1C[C@@H]2CC[C@H](C1)N(S(=O)(=O)c1cccnc1)C2 | -9.57
32 | CCc1ccc(C2CC(=O)Nc3n[nH]cc32)o1 (stereo not given) | 0.796
33 | CC(C)(O)CCc1cccc(C(=O)N2CCC3(CCOCC3)CC2)c1 | -2.42
34 | CC(C)n1ccnc1CNC(=O)c1cccc(CCC(C)(C)O)c1 | -10.5
35 | CN(Cc1nc(-c2cccnc2)no1)C(=O)c1cccn1C | 53.7
36 | CC(=O)N[C@@H]1CN(Cc2nc3ccccc3[nH]2)C[C@H]1c1ccc(C)o1 | -8.75
37 | CC(Cc1ccc2c(c1)OCO2)c1cn(CCN2CCCC2)nn1 (stereo not given) | -12
38 | Cc1nnc(CN(C)CC2(O)CCCN(CCC3CCCCC3)C2=O)o1 (stereo not given) | 2.51
39 | Cc1cc(C)nc(N2CCCC(c3nccn3CCCN(C)C)C2)c1 (stereo not given) | -13.7
40 | Cc1ccccc1CCC1CCCN(C(=O)Cc2cc(=O)[nH]c(N)n2)C1 (stereo not given) | 10.8
